Measurements: ChEMBL document CHEMBL1201862, “PubChem BioAssay data set” (2004)
The source made the active and inactive calls.

Experiments:
[1] = target: Voltage-dependent T-type calcium channel subunit alpha-1H (Homo sapiens, UniProt O95180); assay type: functional;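 also: channel activity triggered by adding a high calcium stimulation buffer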
[2] = cells; assay type: functional, cell-based
[3] = target: T1, Eukaryotic translation initiation factor 2-alpha kinase 3 (Homo sapiens, UniProt Q9NZJ5); assay: Dose response cell-based high-throughput screening assay to measure PERK inhibition. [Related pubchem assays: 1416 ]; assay type: functional
T1 sequence (Q9NZJ5 whole entry): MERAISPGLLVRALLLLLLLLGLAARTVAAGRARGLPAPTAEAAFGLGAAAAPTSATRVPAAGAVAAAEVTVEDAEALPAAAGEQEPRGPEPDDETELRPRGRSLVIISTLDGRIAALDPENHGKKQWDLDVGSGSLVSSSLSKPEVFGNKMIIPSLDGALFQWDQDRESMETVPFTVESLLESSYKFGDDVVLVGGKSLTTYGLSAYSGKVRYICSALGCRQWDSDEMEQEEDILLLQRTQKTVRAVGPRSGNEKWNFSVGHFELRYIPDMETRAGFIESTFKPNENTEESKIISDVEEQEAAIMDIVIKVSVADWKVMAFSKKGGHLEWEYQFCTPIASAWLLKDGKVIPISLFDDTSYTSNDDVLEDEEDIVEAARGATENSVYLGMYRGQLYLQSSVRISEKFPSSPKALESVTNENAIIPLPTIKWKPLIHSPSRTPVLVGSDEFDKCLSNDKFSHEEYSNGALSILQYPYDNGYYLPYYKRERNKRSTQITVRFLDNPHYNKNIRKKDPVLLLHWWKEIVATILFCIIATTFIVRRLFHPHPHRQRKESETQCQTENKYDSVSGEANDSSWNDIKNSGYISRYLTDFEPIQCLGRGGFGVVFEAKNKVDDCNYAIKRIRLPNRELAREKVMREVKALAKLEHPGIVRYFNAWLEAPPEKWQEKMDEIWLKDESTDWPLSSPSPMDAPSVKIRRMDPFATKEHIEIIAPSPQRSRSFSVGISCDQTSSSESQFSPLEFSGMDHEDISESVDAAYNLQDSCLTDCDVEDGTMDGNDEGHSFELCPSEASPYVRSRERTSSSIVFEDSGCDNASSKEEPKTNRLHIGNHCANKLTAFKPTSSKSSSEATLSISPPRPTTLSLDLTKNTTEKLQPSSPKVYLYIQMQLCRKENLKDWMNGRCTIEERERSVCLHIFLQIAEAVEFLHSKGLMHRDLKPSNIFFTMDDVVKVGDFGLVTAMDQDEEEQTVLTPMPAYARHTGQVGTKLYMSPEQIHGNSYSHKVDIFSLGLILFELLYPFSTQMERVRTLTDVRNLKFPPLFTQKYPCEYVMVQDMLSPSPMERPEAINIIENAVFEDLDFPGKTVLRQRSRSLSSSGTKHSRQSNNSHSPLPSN

[4] = target: T1, Eukaryotic translation initiation factor 2-alpha kinase 3; assay: Counterscreen assay for PERK inhibitors: Dose response cell-based high throughput screening assay to measure inhibition of PERK at 6 hours. [Related pubchem assays: 1522, 1416 ]; assay type: functional
[5] = target: X-box-binding protein 1 (Homo sapiens, UniProt P17861); assay type: functional, Cricetulus griseus;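 also: confirmatory dose-response counter-screen serving a CHOP assay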
[6] = target: T2, Tyrosine-protein phosphatase non-receptor type 7 (Homo sapiens, UniProt P35236); assay type: functional
T2 sequence (P35236 whole entry): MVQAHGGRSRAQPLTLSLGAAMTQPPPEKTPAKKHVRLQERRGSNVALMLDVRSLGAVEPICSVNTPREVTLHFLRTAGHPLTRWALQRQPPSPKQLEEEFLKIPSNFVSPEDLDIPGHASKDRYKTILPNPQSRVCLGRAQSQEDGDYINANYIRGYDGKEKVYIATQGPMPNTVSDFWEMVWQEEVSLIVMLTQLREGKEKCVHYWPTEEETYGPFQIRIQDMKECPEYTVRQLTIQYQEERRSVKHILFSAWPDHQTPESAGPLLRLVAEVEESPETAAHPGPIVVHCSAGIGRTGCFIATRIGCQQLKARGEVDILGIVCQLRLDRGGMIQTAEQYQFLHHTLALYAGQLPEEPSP

[7] = target: T3, Dual specificity protein phosphatase 6 (Rattus norvegicus, UniProt Q64346)
T3 sequence (Q64346 whole entry): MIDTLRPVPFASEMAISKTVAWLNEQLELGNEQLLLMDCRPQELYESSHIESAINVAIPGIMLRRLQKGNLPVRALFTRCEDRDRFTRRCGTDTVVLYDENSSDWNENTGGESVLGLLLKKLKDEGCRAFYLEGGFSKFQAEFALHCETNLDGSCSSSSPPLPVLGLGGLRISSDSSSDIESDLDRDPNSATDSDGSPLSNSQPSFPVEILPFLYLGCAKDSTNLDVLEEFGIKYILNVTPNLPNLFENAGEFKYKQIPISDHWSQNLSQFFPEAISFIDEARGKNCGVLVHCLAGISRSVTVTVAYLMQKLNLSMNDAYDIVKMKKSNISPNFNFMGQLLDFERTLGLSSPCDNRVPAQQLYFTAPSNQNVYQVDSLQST

[8] = target: Heat shock cognate 71 kDa protein (Homo sapiens, UniProt P11142); assay: In Vitro Hsc70 Dose Response Fluorescence Polarization Assay. [Related pubchem assays: 1072 ]
Heat shock cognate 71 kDa protein, sequence (P11142 whole entry): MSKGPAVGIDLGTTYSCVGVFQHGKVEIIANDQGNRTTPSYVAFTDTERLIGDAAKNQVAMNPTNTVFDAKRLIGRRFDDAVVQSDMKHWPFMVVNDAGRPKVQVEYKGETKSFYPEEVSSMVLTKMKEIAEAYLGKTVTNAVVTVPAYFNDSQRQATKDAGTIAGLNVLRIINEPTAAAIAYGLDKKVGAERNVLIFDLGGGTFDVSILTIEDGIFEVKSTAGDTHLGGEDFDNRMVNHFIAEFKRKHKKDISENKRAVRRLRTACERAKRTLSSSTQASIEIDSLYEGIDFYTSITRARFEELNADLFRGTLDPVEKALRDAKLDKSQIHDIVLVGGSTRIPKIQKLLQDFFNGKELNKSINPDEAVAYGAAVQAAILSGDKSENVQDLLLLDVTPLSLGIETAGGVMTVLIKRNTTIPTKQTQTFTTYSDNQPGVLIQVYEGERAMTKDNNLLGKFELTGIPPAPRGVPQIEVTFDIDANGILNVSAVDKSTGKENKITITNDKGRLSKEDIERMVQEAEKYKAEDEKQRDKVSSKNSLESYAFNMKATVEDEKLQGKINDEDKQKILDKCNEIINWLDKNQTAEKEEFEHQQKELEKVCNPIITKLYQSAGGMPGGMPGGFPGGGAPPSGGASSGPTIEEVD

[9] = target: Glyceraldehyde-3-phosphate dehydrogenase (Homo sapiens, UniProt P04406)
Glyceraldehyde-3-phosphate dehydrogenase, sequence (P04406 whole entry): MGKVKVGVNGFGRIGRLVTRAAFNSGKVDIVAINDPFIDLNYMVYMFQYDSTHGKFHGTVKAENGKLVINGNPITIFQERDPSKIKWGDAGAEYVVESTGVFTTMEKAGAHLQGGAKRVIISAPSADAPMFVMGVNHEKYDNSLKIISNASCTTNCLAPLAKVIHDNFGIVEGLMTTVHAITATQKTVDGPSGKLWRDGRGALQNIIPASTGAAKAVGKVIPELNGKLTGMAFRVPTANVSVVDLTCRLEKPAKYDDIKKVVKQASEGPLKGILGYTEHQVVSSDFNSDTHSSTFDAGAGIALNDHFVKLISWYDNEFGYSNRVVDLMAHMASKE

[10] = target: Heat shock 70 kDa protein 1A (Homo sapiens, UniProt P0DMV8); assay: Hsp70 inhibitors, SAR follow-up, biochemical, fluorescence polarization (AID 1072)
Heat shock 70 kDa protein 1A, sequence (P0DMV8 whole entry): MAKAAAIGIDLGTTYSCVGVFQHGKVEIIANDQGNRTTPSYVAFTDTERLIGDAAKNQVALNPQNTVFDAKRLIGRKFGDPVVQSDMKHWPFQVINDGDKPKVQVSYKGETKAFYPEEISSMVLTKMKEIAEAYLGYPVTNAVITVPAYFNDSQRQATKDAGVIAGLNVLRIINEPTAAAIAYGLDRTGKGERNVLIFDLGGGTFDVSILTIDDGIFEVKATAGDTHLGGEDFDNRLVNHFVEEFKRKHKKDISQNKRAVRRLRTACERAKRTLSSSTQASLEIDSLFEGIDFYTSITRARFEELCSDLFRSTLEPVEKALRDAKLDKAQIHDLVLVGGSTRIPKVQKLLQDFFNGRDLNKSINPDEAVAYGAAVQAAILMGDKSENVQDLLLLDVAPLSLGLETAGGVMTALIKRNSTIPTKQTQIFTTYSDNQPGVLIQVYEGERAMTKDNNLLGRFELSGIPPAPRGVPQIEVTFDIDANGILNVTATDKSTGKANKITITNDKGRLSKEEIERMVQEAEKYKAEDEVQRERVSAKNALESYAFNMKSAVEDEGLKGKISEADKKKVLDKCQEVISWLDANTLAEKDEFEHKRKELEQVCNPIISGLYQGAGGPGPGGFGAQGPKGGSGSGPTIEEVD

[11] = target: T3, Dual specificity protein phosphatase 6; assay type: functional
[12] = target: Beta-galactosidase (Escherichia coli, UniProt Q8VNN2); assay: beta-galactosidase enzyme inhibitors and activators, dose response, artefact control for CCR6 antagonist project, biochemical, E. coli enzyme, set 3 (AID 504712); assay type: functional
[13] = target: DNA dC->dU-editing enzyme APOBEC-3G (Homo sapiens, UniProt Q9HC16); assay: Dose Response confirmation of small molecule APOBEC3G DNA Deaminase Inhibitors via a fluorescence-based single-stranded DNA deaminase assay. [Related pubchem assays (depositor defined):AID493012, AID493028]; assay type: functional
DNA dC->dU-editing enzyme APOBEC-3G, sequence (Q9HC16 whole entry): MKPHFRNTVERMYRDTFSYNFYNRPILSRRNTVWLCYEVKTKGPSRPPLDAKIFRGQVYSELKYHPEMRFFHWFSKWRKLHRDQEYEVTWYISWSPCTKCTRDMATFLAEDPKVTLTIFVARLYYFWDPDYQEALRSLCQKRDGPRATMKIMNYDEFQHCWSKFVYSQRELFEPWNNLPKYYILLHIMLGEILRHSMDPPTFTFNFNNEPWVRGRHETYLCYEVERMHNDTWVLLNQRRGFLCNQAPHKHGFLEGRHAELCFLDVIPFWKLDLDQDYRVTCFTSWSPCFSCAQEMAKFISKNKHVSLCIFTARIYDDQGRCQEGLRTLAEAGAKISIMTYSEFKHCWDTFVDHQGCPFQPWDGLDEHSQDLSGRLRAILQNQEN

[14] = tested on: H4; assay: Luminescence Cell-Based Dose Response HTS to Identify Activators of 5'UTR Stem-Loop Driven Prion Protein mRNA Translation in H4 Neuroglioblastoma Cells. [Related pubchem assays: 1829 (Project Summary), 1814 (Primary HTS)]; assay type: functional; conditions: Homo sapiens
[15] = Luminescence Cell-Based Dose Response HTS to Identify Activators of Luciferase Translation or Activity in H4 […] Cells. [Related pubchem assays: 1829 (Project Summary), 1814 (Primary HTS)]; assay type: functional
[16] = Luminescence Cell-Based Dose Confirmation HTS to Identify Activators of 5'UTR Stem-Loop Driven Alpha-Synuclein mRNA Translation in H4 Neuroglioblastoma Cells. [Related pubchem assays: 1829 (Project Summary), 1814 (Primary HTS)]; assay type: functional
[17] = target: T4, Endoribonuclease toxin MazF (Escherichia coli K-12, UniProt P0AE70); assay: MazF toxin RNase activators, dose response, biochemical, fluorescence, single-stranded RNA substrate, uHTS hits (AID 588481); assay type: functional
T4 sequence (P0AE70 whole entry): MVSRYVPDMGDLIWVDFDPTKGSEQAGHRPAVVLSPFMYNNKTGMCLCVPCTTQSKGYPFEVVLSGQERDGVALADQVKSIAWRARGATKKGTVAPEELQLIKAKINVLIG

[18] = target: T5, Oxysterols receptor LXR-beta (Homo sapiens, UniProt P55055); assay type: functional, cell-based;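 also: agonist activity at LXR measured by a cell-based luminescence readout across a dose range, run as a counterscreen for daf-12 agonists; HEK293 cells with Gal4-LXR fusion and GAL4-driven luciferase reporter; potency for activation of Gal4-LXR reporter so compounds are agonists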
T5 sequence (P55055 whole entry): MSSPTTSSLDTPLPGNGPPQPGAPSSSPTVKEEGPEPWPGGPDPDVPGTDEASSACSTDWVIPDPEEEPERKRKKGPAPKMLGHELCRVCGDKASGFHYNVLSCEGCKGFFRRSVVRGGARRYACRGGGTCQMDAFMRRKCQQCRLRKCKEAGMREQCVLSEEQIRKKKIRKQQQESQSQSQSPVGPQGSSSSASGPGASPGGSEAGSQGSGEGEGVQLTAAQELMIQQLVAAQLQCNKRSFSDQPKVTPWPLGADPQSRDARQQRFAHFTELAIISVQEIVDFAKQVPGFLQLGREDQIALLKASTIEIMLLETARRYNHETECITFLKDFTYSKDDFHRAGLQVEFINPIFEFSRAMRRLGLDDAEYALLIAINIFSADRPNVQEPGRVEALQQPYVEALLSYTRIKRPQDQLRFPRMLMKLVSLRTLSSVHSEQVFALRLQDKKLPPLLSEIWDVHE

[19] = tested on: HeLa; assay: HeLa cell cytotoxicity, dose response, cytotoxicity control, 24 h, cherry-picked samples (AID 504726); assay type: functional, cell-based; conditions: Homo sapiens;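 also: potency for cytotoxicity as loss of luminescence signal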
[20] = target: T4, Endoribonuclease toxin MazF; assay: fluorescent RNA oligo signal without MazF, dose response, counter-screen for MazEF activator project, biochemical, fluorescence, single-stranded RNase substrate (AID 588502); assay type: functional
[21] = target: Polyadenylate-binding protein 1 (Homo sapiens, UniProt P11940); assay: PABP poly(A) RNA binding inhibitors, primary screen, biochemical, fluorescence polarization, uHTS (AID 2014)
[22] = target: Paired box protein Pax-8 (Homo sapiens, UniProt Q06710); assay: inhibitors of PAX8-driven TPO luciferase reporter, dose response, RMG-I cells, cherry-pick (AID 687027); assay type: functional, cell-based;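 also: luciferase reporter driven by Pax8 target thyroperoxidase promoter measured by SteadyGlo luminescence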
Paired box protein Pax-8, sequence (Q06710 whole entry): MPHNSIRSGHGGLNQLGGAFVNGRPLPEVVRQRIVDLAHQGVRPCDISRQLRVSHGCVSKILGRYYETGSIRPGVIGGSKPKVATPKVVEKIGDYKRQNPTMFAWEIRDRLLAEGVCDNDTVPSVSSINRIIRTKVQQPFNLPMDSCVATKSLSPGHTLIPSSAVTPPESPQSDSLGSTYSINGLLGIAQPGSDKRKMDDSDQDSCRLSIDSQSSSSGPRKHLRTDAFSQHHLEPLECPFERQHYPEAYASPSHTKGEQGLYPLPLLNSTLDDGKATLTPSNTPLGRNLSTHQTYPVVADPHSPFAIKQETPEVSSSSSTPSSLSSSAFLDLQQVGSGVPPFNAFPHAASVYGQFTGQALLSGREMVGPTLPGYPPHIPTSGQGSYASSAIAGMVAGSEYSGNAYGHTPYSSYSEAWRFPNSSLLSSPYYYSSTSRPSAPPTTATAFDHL

[23] = target: Eukaryotic translation initiation factor 4H (Homo sapiens, UniProt Q15056); assay: human eIF4H binding inhibitors, primary screen, translation initiation inhibitor project, biochemical, uHTS, fluorescence polarization (AID 2012)

Voltage-dependent T-type calcium channel subunit alpha-1H, sequence (O95180 whole entry): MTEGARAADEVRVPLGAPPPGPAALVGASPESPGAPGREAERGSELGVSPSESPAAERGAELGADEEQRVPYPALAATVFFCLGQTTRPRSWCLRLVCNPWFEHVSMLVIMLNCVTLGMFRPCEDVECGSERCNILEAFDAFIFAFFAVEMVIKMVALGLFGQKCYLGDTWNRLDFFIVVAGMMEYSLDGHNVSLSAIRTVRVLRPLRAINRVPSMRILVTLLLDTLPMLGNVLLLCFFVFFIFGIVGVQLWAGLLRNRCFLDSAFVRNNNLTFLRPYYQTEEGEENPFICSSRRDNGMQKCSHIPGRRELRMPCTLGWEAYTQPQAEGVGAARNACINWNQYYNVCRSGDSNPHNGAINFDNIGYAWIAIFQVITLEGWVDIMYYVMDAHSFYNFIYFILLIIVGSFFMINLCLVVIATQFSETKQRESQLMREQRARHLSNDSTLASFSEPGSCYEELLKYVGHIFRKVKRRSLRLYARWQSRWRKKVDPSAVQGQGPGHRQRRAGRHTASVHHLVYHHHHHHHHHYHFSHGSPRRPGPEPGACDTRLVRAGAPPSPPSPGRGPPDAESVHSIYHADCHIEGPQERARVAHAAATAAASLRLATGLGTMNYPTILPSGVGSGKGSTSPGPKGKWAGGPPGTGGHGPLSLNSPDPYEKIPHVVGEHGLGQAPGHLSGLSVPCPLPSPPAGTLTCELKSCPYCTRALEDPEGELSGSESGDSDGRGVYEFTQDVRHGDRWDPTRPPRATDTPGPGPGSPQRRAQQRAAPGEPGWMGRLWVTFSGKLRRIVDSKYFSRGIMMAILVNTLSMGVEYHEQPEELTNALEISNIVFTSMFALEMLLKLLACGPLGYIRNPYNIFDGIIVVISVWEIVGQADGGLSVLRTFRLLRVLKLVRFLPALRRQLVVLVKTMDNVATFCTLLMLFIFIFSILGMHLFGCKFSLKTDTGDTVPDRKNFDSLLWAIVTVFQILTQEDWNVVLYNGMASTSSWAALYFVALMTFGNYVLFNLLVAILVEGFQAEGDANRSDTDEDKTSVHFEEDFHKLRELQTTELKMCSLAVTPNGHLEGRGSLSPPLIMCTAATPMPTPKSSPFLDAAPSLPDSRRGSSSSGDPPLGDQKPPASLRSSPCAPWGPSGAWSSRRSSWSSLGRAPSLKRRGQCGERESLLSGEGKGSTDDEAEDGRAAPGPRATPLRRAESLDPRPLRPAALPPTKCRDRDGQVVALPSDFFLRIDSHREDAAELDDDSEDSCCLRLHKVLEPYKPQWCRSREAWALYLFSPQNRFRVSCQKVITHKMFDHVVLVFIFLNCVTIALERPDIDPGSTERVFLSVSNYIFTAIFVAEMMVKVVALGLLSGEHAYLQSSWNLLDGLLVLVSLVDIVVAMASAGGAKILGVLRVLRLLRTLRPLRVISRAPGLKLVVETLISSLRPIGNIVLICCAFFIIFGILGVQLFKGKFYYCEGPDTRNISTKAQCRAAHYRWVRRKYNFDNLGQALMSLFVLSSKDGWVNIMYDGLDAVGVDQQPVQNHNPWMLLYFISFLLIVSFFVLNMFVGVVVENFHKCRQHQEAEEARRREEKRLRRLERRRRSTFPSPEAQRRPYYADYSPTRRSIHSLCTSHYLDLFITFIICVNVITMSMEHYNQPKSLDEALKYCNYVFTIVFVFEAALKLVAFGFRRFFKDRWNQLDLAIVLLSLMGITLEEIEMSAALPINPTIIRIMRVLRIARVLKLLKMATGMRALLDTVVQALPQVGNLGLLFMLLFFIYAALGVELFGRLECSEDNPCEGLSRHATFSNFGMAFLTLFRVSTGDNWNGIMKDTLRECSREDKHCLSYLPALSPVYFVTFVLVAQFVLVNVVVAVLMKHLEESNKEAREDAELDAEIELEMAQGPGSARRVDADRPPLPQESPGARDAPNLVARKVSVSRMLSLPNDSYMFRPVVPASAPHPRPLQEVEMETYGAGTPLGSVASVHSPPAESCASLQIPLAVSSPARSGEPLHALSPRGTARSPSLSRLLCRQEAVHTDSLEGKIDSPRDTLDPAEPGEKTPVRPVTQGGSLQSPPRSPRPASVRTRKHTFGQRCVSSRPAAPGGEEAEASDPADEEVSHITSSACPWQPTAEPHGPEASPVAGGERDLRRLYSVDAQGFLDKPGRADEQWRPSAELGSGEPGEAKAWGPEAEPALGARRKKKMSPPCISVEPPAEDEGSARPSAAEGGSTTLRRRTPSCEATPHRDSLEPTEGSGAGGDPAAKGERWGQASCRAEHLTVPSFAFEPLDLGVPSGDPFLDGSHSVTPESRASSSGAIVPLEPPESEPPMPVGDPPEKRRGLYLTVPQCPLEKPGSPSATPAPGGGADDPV

Question: For `Cn1cccc1Cc1nnc(SCC(=O)Nc2ccc(F)cc2F)n1-c1ccc(F)cc1`, which EC50 [1] is on record?
Answer: 4.6 µM (active)

Question: Which EC50 [2] does the source give for `Cc1ccc(-c2cc(N)n(-c3ccc(F)cc3)n2)cc1` here?
Answer: > 350 µM (not active)

Question: And the EC50 [3]?
Answer: > 55.7 µM (not active)

Question: And the EC50 [4]?
Answer: > 55.7 µM (not active)

Question: Which EC50 [3] does the source give for `CC(C)Cc1cc(C(=O)NCc2cccs2)no1` here?
Answer: > 55.7 µM (not active)

Question: And the EC50 [4]?
Answer: > 55.7 µM (not active)

Question: Which “Absolute IC50 (XBP1)” value [5] does the source give for `CC(C)Cn1c2c(c(=O)[nH]c1=O)C(C(F)(F)F)(C(F)(F)F)NC(CCC1CCCCC1)=N2` here?
Answer: 10 µM

Question: Which IC50 [6] does the source give for `NS(=O)(=O)c1ccc2c(c1)C1C=CCC1C(C(=O)O)N2` (stereo unspecified) here?
Answer: 47.3 µM (active)

Question: What about the IC50 [7] of the same compound?
Answer: > 100 µM (inactive)

Question: And the IC50 [8]?
Answer: > 100 µM (not active)

Question: And the IC50 [9]?
Answer: 62.2 µM (active)

Question: What about the IC50 [10] of the same compound?
Answer: 1.97 µM (active)

Question: And the IC50 [11]?
Answer: > 100 µM (inactive)

Question: For `CC(C)c1ccc(O)c(NC(=S)NC(=O)c2ccc3c(c2)OCO3)c1`, which IC50 [12] is on record?
Answer: > 66.6 µM (inactive)

Question: Which IC50 [6] does the source give for `CC(C)COC(=O)c1ccc2c(c1)C1C=CCC1C(C(=O)O)N2` (stereo unspecified) here?
Answer: 44.8 µM (active)

Question: What about the IC50 [7] of the same compound?
Answer: 48.2 µM (active)

Question: What about the IC50 [8] of the same compound?
Answer: 164 µM (active)

Question: And the IC50 [9]?
Answer: 87.3 µM (active)

Question: And the IC50 [10]?
Answer: 32.5 µM (active)

Question: What about the IC50 [11] of the same compound?
Answer: 55.8 µM (active)

Question: Which IC50 [13] does the source give for `O=c1c2cccc(Cl)c2nc2n1Cc1ccccc1-2` here?
Answer: 27.4 µM (active)

Question: What about the EC50 [14] of the same compound?
Answer: > 120 µM (not active)

Question: And the EC50 [15]?
Answer: 64.2 µM (active)

Question: What about the EC50 [16] of the same compound?
Answer: 23.4 µM (active)

Question: For `CSc1nc2c(c(=O)[nH]c(=O)n2C)n1Cc1ccc(Cl)cc1`, which IC50 [13] is on record?
Answer: 65.2 µM (active)

Question: For `C[C@@H](C(=O)Nc1ccc2ccccc2c1)[C@@H]1C[C@@]1(C)[C@@H](NC(=O)c1ccccc1)c1ccccc1`, which EC50 [1] is on record?
Answer: 2.95 µM (active)

Question: For `Oc1[nH]c2ccccc2c1N=Nc1ccccc1F`, which EC50 [17] is on record?
Answer: > 99 µM (inactive)

Question: And the EC50 [18]?
Answer: > 67.6 µM (inactive)

Question: And the AC50 [19]?
Answer: 100 µM (active)

Question: And the EC50 [20]?
Answer: 31.7 µM (inactive)

Question: And the EC50 [14]?
Answer: > 120 µM (not active)

Question: What about the EC50 [15] of the same compound?
Answer: 8.29 µM (active)

Question: What about the EC50 [16] of the same compound?
Answer: 4.39 µM (active)

Question: What does the source list for `C[C@H](NC(=O)c1ccco1)C(=O)Nc1cccc([N+](=O)[O-])c1`?
Answer: IC50 [21]: > 100 µM (inactive); AC50 [22]: 59.2 µM (active); IC50 [23]: > 100 µM (inactive)
